Results as given in patent EP2356213B1, “STEM CELL AGGREGATE SUSPENSION COMPOSITIONS AND METHODS FOR DIFFERENTIATION THEREOF” (VIACYTE, INC., priority 2008, dated 2010).
“Also recorded” adds a separate entry of the source.

Tests used:
[1] = tested on: BG02 cells; experiment: Suspension cultures with and without an apoptosis inhibitor, cell counting; type: cell-based, human
Experimental: To attenuate the loss of cells after initial passaging in suspension, an inhibitor of apoptosis was added to the medium. Cells were passaged as in Example 12, except that Y-27632, an inhibitor of p160-Rho-associated coiled-coil kinase (ROCK), was added to the medium.
Suspension aggregates of BG02 cells were formed by seeding 2x10^6 single cells in 6-well dishes in 3 mL DC-HAIF medium, at 100 rpm on a rotating platform in an incubator (Table 2, Experiment A). 10 µM Y27632 ROCK inhibitor was added to test wells for the course of the experiment and the cultures observed daily and counted after 24 hours (day 1) and after 4 or 5 days. […] Cell counting confirmed that more viable cells were present in the presence of inhibitor (Table 2, Experiment A). This difference in cell number persisted throughout the course of the culture period, with more cells also observed on day 4, compared to cultures without inhibitor. As with previous suspension culture experiments, cells exposed to Y27632 could also be serially passaged, and maintained in an undifferentiated state (not shown).
As previous experiments had shown that growth rates of cells in suspension and adherent culture were similar after the initial 24 hours, an experiment was performed where Y27632 was removed after this initial period (Table 2, Experiment B). […] 1.4x10^7 (+Y27632) and 1.8x107 (+/-Y27632) viable cells were generated when inhibitor was present compared to 3.9x10^6 cells in untreated cultures. This analysis confirmed that Y27632 had the largest impact during the first 24 hours of suspension hESC culture.
Because of the enhanced survival and aggregation observed in the presence of Y27632, an experiment was performed to examine if it was possible to reduce the number of cells used to seed suspension cultures (Table 2, Experiment C). […] To determine if addition of a ROCK inhibitor would allow cell seeding at lower densities, a range of cell concentrations (from about 2x10^6 total cells down to about 1x10^5 total cells was used to seed suspension cultures in 6-well trays cells in 3 mL DC-HAIF. 10 µM Y27632 was added to all conditions, and the cell number and viability assessed on day 5. Successful aggregation and expansion was observed even at low seeding densities. An approximately 13 fold expansion of viable cells was observed even cultures that were only seeded with 1x10^5 cells. Inhibition of ROCK with Y27632 therefore facilitated initial survival of hESCs at much lower densities in this suspension system. Table 2 - Suspension Cultures with and without an Apoptosis Inhibitor

[2] = tested on: ES cells; experiment: Suspension cultures in various media, cell counting; type: cell-based; settings: added to HAIF, HAI, HI
Experimental: To determine if suspensions of ES cells could be cultured in the absence of FGF2 and/or Activin A, ES cells were cultured in a variety of media, with and without these factors. […] In addition, the cells in each media were successfully passaged with no morphological signs of differentiation. Table 3 - Suspension Cultures in Various Media

[3] = tested on: pancreatic epithelial and endocrine type cells; experiment: Re-aggregation of dissociated stage 4 or stage 5 adherent cultures with ROCK inhibitor; type: cell-based, human; settings: 10µM
Experimental: Adherent cultures at either stage 4 (about d10 - d14 into the differentiation protocol; pancreatic epithelial and endocrine type cells) or stage 5 (about day 16 to day 30 into the differentiation protocol; endocrine precursor and endocrine cells) were similarly dissociated into single cells, counted, and pelleted. The cell pellet was then resuspended in DMEM CMRL supplemented Pen/Strep and Glutamax, and IX B27-supplement and DNase (50-100 µg/ml, Roche Diagnostics) and 0-2% FBS. […] Cells were equally distributed into 6-well plates and placed on a rotating platform at 100 rpm to 140 rpm form 4 hours to overnight substantially as described above.

[4] = tested on: BG02 hESCs; experiment: Proliferation of hESCs in conditioned medium with AG825; type: cell-based, human
Text: (§1) Colony and cell-counting assays confirmed that LongR3-IGFl and HRG played the major roles in self-renewal and proliferation in the context of one of the embodiments of the present invention (Fig. 6D, 6E). Phosphorylation of IGF1R, IR, […], ErbB2, and ErbB3 was also observed in both steady-state DC-HAIF cultures, and in starved cultures that were pulsed with DC-HAIF (Fig. 6F).

[5] = biological target: T1, ErbB2 (Homo sapiens, UniProt P04626); experiment: Western blotting of ErbB2 autophosphorylation in starved/heregulin pulsed hESCs; type: cell-based; settings: starved/heregulin (HRG) pulsed hESCs in DC-HAIF
T1 construct: endogenous in cells; host or cells: human embryonic stem cells (hESCs) growing in DC-HAIF
Text: as §1

[6] = tested on: BGOlv cells; experiment: Effect of ErbB tyrosine kinase inhibitors on proliferation of BG01v hESCs (alkaline phosphatase staining after 5 days); type: cell-based
Experimental: The EGF domain family of ligands bind to the ErbB family of receptor tyrosine kinases. To examine the effect of known inhibitors of ErbB tyrosine kinases in hESCs, BGOlv cells were plated in 6 well trays on MATRIGEL™ diluted at 1:1000, in defined culture medium (DC) containing 100 ng/mL LongR3-IGFl, 8 ng/mL FGF2 and 1 ng/mL Activin A. On the next day, DMSO (carrier control), 50 nM-20 µM AG1478 (an ErbB1 inhibitor), or 100 nM-20 µM AG879 (an ErbB2 inhibitor) was added with fresh medium. The cells were cultured for an additional 5 days, with daily media changes. The cultures were then fixed and stained for alkaline phosphatase activity.

[7] = tested on: R1 mouse ES cells; experiment: Effect of ErbB1/ErbB2 inhibitors on proliferation of mouse ES cells (alkaline phosphatase staining, 8 days); type: cell-based
Experimental: AG1478 and AG879 were used to examine the role of HRG/ErbB signaling in mouse ES cells. R1 mouse ES cells were maintained in standard conditions in DMEM, 10% FBS, 10% KSR, 0.5 U/mL penicillin, 0.5 U/mL streptomycin, 1xNEAA, 1 mM sodium pyruvate, 1000 U/mL LIF (ESGRO), 0.1 mM β-ME, and were passaged with 0.5% trypsin/EDTA. 2x10^5 cells/well were plated in 6 well trays on MATRIGEL™ diluted at 1:1000. The day after plating, DMSO (carrier control), 1-50 µM AG1478, or 1-50 µM AG879 was added with fresh medium. The cells were cultured an additional 8 days, with daily media changes. The cultures were then fixed and stained for alkaline phosphatase activity.

[8] = Expt. A, seeding 2x10^6, p0, day 1
[9] = Expt. A, seeding 2x10^6, p0, day 4
[10] = Expt. A, seeding 2x10^6, p1, day 4
[11] = Expt. B, seeding 2x10^6, p0, day 1
[12] = Expt. B, seeding 2x10^6, p0, day 5, +/-Y27632 = inhibitor removed after 24 hours, listed as +/-Y27632
[13] = Expt. B, seeding 2x10^6, p0, day 5, +/-Y27632 = inhibitor removed after 24 hours, listed as +Y27632
[14] = Expt. C, seeding 1x10^6, p0, day 1
[15] = Expt. C, seeding 1x10^6, p0, day 5
[16] = Expt. C, seeding 2x10^6, p0, day 1
[17] = Expt. C, seeding 2x10^6, p0, day 5
[18] = Expt. C, seeding 2.5x10^5, p0, day 1
[19] = Expt. C, seeding 2.5x10^5, p0, day 5
[20] = Expt. C, seeding 5x10^5, p0, day 1
[21] = Expt. C, seeding 5x10^5, p0, day 5
[22] = Expt. C, seeding 10^5, p0, day 1
[23] = Expt. C, seeding 10^5, p0, day 5

T1 sequence (P04626 23-1255): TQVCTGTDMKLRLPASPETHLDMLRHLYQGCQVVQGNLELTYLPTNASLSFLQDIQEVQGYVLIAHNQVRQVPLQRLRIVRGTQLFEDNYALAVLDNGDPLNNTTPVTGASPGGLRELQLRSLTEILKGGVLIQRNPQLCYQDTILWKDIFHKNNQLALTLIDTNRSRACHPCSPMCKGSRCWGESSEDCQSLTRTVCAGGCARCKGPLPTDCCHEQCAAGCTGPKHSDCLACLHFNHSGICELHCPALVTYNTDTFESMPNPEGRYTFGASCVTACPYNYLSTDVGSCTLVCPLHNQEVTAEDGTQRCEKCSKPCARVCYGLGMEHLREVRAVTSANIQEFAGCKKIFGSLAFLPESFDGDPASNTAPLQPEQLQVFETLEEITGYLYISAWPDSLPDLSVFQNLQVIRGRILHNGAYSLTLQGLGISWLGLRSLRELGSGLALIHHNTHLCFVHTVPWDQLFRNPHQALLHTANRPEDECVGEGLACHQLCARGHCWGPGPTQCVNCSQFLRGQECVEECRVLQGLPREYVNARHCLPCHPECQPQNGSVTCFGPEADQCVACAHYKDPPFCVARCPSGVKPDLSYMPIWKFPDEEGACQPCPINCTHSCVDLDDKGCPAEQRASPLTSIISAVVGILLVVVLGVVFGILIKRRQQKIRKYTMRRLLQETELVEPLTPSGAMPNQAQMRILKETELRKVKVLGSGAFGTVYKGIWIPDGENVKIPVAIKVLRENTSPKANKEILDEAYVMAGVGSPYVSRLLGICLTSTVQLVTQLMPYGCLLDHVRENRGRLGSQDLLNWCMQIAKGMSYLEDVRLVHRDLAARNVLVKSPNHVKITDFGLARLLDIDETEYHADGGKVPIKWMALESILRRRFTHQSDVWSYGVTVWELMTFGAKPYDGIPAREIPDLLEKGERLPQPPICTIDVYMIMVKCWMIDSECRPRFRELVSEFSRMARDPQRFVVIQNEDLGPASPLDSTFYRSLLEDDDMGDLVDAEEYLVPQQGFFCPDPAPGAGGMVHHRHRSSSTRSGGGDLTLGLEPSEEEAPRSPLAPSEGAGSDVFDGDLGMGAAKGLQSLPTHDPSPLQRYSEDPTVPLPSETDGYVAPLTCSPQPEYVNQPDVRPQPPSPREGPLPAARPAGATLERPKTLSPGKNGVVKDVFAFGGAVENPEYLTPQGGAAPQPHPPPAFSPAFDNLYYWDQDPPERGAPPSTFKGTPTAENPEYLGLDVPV

## C[C@@H](N)[C@H]1CC[C@H](C(=O)Nc2ccncc2)CC1 [Y27632]
[1]; 10 µM Y27632, seeded with 1x10^5 cells, day 5
  expansion of viable cells: approximately 13 fold
[1]; 10 µM, compared to medium without inhibitor
  initial aggregation in suspension culture: much larger aggregates were formed
[1]; BG02 suspension culture in the presence of Y27632
  differentiation state by RT-PCR: remained undifferentiated
[1]; Expt. A, p1, vs without inhibitor
  cell number when the aggregates were split again: almost twice as many cells were observed
[1]; [8]
  Cell counts: total: 1.6x10^6
  Cell counts: viable: 1.2x10^6
  Cell counts: viable, %: 74%
[1]; [9]
  Cell counts: total: 7.8x10^6
  Cell counts: viable: 7.1x10^6
  Cell counts: viable, %: 91%
[1]; [10]
  Cell counts: total: 4.6x10^6
  Cell counts: viable: 4.2x10^6
  Cell counts: viable, %: 91%
[1]; [11]
  Cell counts: total: 1.9x10^6
  Cell counts: viable: 1.4x10^6
  Cell counts: viable, %: 73%
[1]; [12]
  Cell counts: total: 1.9x10^7
  Cell counts: viable: 1.8x10^7
  Cell counts: viable, %: 96%
[1]; [13]
  Cell counts: total: 1.5x10^7
  Cell counts: viable: 1.4x10^7
  Cell counts: viable, %: 92%
[1]; [14]
  Cell counts: total: 8.7x10^5
  Cell counts: viable: 6.6x10^5
  Cell counts: viable, %: 76%
[1]; [15]
  Cell counts: total: 8.6x10^6
  Cell counts: viable: 7.8x10^6
  Cell counts: viable, %: 91%
[1]; [16]
  Cell counts: total: 1.9x10^6
  Cell counts: viable: 1.6x10^6
  Cell counts: viable, %: 84%
[1]; [17]
  Cell counts: total: 1.4x10^7
  Cell counts: viable: 1.2x10^7
  Cell counts: viable, %: 90%
[1]; [18]
  Cell counts: total: 2.6x10^5
  Cell counts: viable: 2.3x10^5
  Cell counts: viable, %: 91%
[1]; [19]
  Cell counts: total: 2.7x10^6
  Cell counts: viable: 2.5x10^6
  Cell counts: viable, %: 91%
[1]; [20]
  Cell counts: total: 4.6x10^5
  Cell counts: viable: 3.5x10^5
  Cell counts: viable, %: 75%
[1]; [21]
  Cell counts: total: 5.7x10^6
  Cell counts: viable: 5.3x10^6
  Cell counts: viable, %: 93%
[1]; [22]
  Cell counts: total: 6.8x10^4
  Cell counts: viable: 5.4x10^4
  Cell counts: viable, %: 79%
[1]; [23]
  Cell counts: total: 1.4x10^6
  Cell counts: viable: 1.3x10^6
  Cell counts: viable, %: 92%
[2]
  yield of cells generated by day 5: increased the yield of cells generated by day 5 in all conditions
[3]
  cell survival: supported cell survival

## COc1cc(C=C(C#N)C(N)=O)cc(CSc2nc3ccccc3s2)c1O [AG825, tyrphostin AG825]
[4]; 50 µM, conditioned medium (CM)
  proliferation: significantly inhibited proliferation
[4]; in presence of AG825
  time viable hESCs could be maintained: > 5 days
[5]
  autophosphorylation of ErbB2 at tyrosine-1248: inhibited autophosphorylation of ErbB2 at tyrosine-1248; also recorded: inhibits ErbB2 Y1248 phosphorylation

## CC(C)(C)c1cc(/C=C(\C#N)C(N)=S)cc(C(C)(C)C)c1O [AG879]
[6]; at 5 µM, 5 days
  cell growth: substantially inhibited cell growth; also recorded: substantially slowed cell growth
[6]; at 20 µM
  cell death: caused cell death
[6]; cultures grown in AG879
  differentiation: inhibit proliferation without inducing differentiation
[7]; at 20 µM
  proliferation: may have slowed proliferation
[7]; at 50 µM
  cell growth: substantially inhibited cell growth
[7]; mESCs grown in AG879
  differentiation: did not appear to differentiate
[7]; mESCs vs BG01v cells grown in defined conditions
  concentration required to inhibit proliferation, mESCs relative to BG01v cells: ~10 x

## COc1cc2ncnc(Nc3cccc(Cl)c3)c2cc1OC [AG1478]
[6]; 50 nM-20 µM, 5 days, DC medium
  cell proliferation: neither DMSO nor AG1478 (50 nM-20 µM) had an apparent affect on cell proliferation; also recorded: did not appear to affect proliferation
[7]; 1-50 µM, 8 days, 10% FBS, 10% KSR, LIF
  cell proliferation: no apparent affect on cell proliferation; also recorded: did not overtly inhibit proliferation
